Assay results published in patent US7732444B2, “2-(amino-substituted)-4-aryl pyrimidines and related compounds useful for treating inflammatory diseases” (Millennium Pharmaceuticals, Inc., priority 2004, dated 2010).

Biological target: T1, full length PKC θ (Homo sapiens, UniProt Q04759)
T1 construct: 15 μL of full length PKC θ (Panvera Corporation); purchased Panvera Corporation
Assay: PKC-theta isoform inhibition assay (HTRF, 384 well plate)
Format: biochemical
Conditions: full length PKC θ at 27 pM, peptide substrate 300 nM + 3 μM ATP, HTRF readout
Method: An in vitro assay for detecting and measuring inhibition activity against PKC-theta isoform by candidate pharmacological agents is useful for evaluating and selecting a compound that modulates PKC-theta isoform. An IC50 value can be calculated after running the assay. Following is an assay protocol for measuring PKC-theta isoform.
Per well of a 384 well plate, compounds at various concentrations in 5 μL of 20% DMSO were pre-incubated for about 30 minutes at about 25° C. with 15 μL of full length PKC θ (Panvera Corporation) at 27 pM in an assay buffer (25 mM Hepes, pH 7.5, 5 mM DTT, 10 mM MgCl2, 10 mM 2-glycerophosphate, 12.5 μg/mL 1,2-dioleoyl-rac-glycerol, 10 μg/mL L-α-phosphatidyl-L-serine, 0.1% Bovine Serum Albumin). 10 μL of peptide substrate (biotin-(CH2)6— RFARKGSLRQKNV —CONH2) at 300 nM+3 μM ATP were added to each well and incubated for about 1 hour before quenching with 10 μL of 250 mM EDTA. 40 μL of detection buffer (25 mM Hepes, pH 7.5, 100 mM KF, 0.1% Bovine Serum Albumin, 0.01% Tween20) containing 2 nM anti-phospho antibody 2B9 (MBL International) labeled with europium cryptate (Cis-Bio International) and 0.0064 μg/mL streptavidin-allophycocyanin (Prozyme) was added to each well and incubated for two hours. Signal was then read on a Discovery HTRF (Packard).

T1 sequence (Q04759 whole entry): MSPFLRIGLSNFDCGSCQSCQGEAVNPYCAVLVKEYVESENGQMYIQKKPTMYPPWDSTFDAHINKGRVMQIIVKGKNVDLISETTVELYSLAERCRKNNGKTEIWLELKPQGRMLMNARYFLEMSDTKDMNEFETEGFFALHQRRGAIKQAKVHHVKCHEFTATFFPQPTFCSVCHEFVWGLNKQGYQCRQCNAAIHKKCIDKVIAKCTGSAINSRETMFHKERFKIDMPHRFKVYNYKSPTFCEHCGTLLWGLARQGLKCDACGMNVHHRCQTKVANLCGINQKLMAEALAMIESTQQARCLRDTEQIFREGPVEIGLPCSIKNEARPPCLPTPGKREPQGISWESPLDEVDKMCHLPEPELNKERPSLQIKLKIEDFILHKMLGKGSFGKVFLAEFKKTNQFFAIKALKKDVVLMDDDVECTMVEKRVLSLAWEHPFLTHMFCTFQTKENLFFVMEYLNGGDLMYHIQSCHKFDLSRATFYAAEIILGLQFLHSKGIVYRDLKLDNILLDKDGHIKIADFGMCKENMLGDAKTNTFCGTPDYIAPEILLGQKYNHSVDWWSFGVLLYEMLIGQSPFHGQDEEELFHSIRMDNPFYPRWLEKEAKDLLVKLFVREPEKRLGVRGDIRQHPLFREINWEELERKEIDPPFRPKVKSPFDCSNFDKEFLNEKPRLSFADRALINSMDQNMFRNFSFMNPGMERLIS

IC50 [nM] | SMILES
< 100 | Oc1ccc(CCNc2nccc(-c3cccc(NC4CCNCC4)c3)n2)cc1Cl [Compound 45, 2-Chloro-4-(2-{4-[3-(piperidin-4-ylamino)-phenyl]-pyrimidin-2-ylamino}-ethyl)-phenol]
< 100 | C[C@H]1CNCCN1S(=O)(=O)c1cccc(-c2ccnc(NCCc3ccc(O)c(Cl)c3)n2)c1 [Compound 278]
< 100 | C[C@H]1CNCC[C@H]1NCc1cccc(-c2ccnc(NCCc3ccc(O)cc3)n2)c1 [Compound 249, 4-[2-(4-{3-[(3(S)-Methyl-piperidin-4(R)-ylamino)-methyl]-phenyl}-pyrimidin-2-ylamino)-ethyl]-phenol]
< 100 | CS(=O)(=O)N(CCCN)Cc1cccc(-c2ccnc(NCCc3ccc(O)c(Cl)c3)n2)c1 [Compound 24, N-(3-Amino-propyl)-N-(3-{2-[2-(3-chloro-4-hydroxy-phenyl)-ethylamino]-pyrimidin-4-yl}-benzyl)-methanesulfonamide]
< 100 | CS(=O)(=O)N(CCCN)Cc1cccc(-c2ccnc(NCCc3ccc(O)c([N+](=O)[O-])c3)n2)c1 [Compound 22, N-(3-Amino-propyl)-N-(3-{2-[2-(4-hydroxy-3-nitro-phenyl)-ethylamino]-pyrimidin-4-yl}-benzyl)-methanesulfonamide]
< 100 | CS(=O)(=O)N(CCCN)Cc1cccc(-c2ccnc(NCCc3ccc(O)c(Br)c3)n2)c1 [Compound 36, N-(3-Amino-propyl)-N-(3-{2-[2-(3-bromo-4-hydroxy-phenyl)-ethylamino]-pyrimidin-4-yl}-benzyl)-methanesulfonamide]
< 100 | CCN(CCC1CCCCN1)Cc1cccc(-c2ccnc(NCCc3ccc(O)c(Cl)c3)n2)c1 (centres unmarked) [Compound 289, 2-chloro-4-(2-(4-(3-((ethyl(2-(piperidin-2-yl)ethyl)amino)methyl)phenyl)pyrimidin-2-ylamino)ethyl)phenol]
< 100 | CS(=O)(=O)N(CCCNS(=O)(=O)c1ccccc1)Cc1cccc(-c2ccnc(NCCc3ccc(O)cc3)n2)c1 [Compound 65, N-{3-[(3-{2-[2-(4-Hydroxy-phenyl)-ethylamino]-pyrimidin-4-yl}-benzyl)-methanesulfonyl-amino]-propyl}-benzenesulfonamide]
< 100 | Oc1ccc(CCNc2nccc(-c3cccc(NC4CCNCC4)c3)n2)cc1Br [Compound 50, 2-Bromo-4-(2-{4-[3-(piperidin-4-ylamino)-phenyl]-pyrimidin-2-ylamino}-ethyl)-phenol]
< 100 | Oc1ccc(CCNc2nccc(-c3cccc(CN4CC5CC4CN5)c3)n2)cc1Cl (centres unmarked) [Compound 265, 2-Chloro-4-(2-{4-[3-(2,5-diaza-bicyclo[2.2.1]hept-2-ylmethyl)-phenyl]-pyrimidin-2-ylamino}-ethyl)-phenol]
< 100 | Oc1ccc(CCNc2nccc(-c3cccc(CN4CC5CC4CN5)c3)n2)cc1 (centres unmarked) [Compound 266, 4-(2-{4-[3-(2,5-Diaza-bicyclo[2.2.1]hept-2-ylmethyl)-phenyl]-pyrimidin-2-ylamino}-ethyl)-phenol]
< 100 | CS(=O)(=O)N(CCCN)Cc1cccc(-c2ccnc(NCCc3ccc(N)cc3)n2)c1 [Compound 5, N-(3-{2-[2-(4-Amino-phenyl)-ethylamino]-pyrimidin-4-yl}-benzyl)-N-(3-amino-propyl)-methanesulfonamide]
< 100 | CS(=O)(=O)N(CCCNS(=O)(=O)Cc1ccccc1)Cc1cccc(-c2ccnc(NCCc3ccc(O)cc3)n2)c1 [Compound 64, N-{3-[(3-{2-[2-(4-Hydroxy-phenyl)-ethylamino]-pyrimidin-4-yl}-benzyl)-methanesulfonyl-amino]-propyl}-C-phenyl-methanesulfonamide]
< 100 | CN1CCN(Cc2cccc(-c3ccnc(NCCc4ccc(O)cc4)n3)c2)CC1 [Compound 81, 4-(2-{4-[3-(4-Methyl-piperazin-1-ylmethyl)-phenyl]-pyrimidin-2-ylamino}-ethyl)-phenol]
